# Data reported in US20120207763A1, “PYRROLOPYRIMIDINE COMPOUNDS AND THEIR USES” (ASTEX THERAPEUTICS LIMITED, priority 2006, published 2012).
# Molecular target: T1, JAK-3 (Homo sapiens, UniProt P52333)
# T1 construct: GST fusion constructs of the kinase domains of both enzymes are used; GST
# Assay: JAK LANCE enzymatic assay (JAK-3)
# Assay type: biochemical
# Conditions: Table A; read-out: Jak-3/ IC50
# Description: Binding of cytokines and certain growth factors to their respective receptors trigger activation of Janus kinases, which phosphorylate members of the STAT family. Phosphorylated STAT molecules dimerize and migrate to the nucleus where they bind to DNA and initiate transcription of responsive genes. Inhibitors of pathways downstream of cytokine/growth factor receptors have therapeutic potential for several indications. An enzymatic assay for JAK-3 and JAK-2 has been developed to identify T-cell selective inhibitors. GST fusion constructs of the kinase domains of both enzymes are used and a biotinylated, tyrosine containing peptide serves as substrate. Phosphorylation of this peptide by the respective kinase is quantified with an europium-labeled anti-phosphotyrosine antibody (Eu-PT66) as energy donor and a streptavidin-allophycocyanine conjugate (SA-APC) as energy acceptor. The assay has been established in a 384 well format.
# In the JAK LANCE™ assay, a biotinylated peptide is incubated together with compounds and ATP in buffer. The phosphorylation reaction starts after addition of JAK kinase. After incubation at RT the reaction is stopped with EDTA and the product detected by addition Streptavidin-Allophycocyanin and Europium-labeled antiphosphotyrosine antibody. The signal is measured using an EnVision Reader. Exc: 320 nm, Em, Donor: 615 nm and Em, Acceptor: 665 nm in time resolved fashion with a delay of […].
# T1 sequence (P52333 822-1111 limits assumed): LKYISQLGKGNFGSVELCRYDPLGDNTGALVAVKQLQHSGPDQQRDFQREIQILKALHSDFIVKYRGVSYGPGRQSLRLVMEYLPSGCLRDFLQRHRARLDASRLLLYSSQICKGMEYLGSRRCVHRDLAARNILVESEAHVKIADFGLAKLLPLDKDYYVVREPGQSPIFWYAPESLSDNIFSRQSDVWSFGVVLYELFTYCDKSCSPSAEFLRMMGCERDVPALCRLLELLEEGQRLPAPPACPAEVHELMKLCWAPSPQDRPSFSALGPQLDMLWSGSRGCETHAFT
row,Structure (SMILES),IC50 [nM]
1,CC(=O)N1CCN(c2ccc(Nc3ncc(Br)c(Nc4ccccn4)n3)cc2)CC1,≤ 100
2,CN1CCN(c2ccc(Nc3ncc4c(n3)N(C3CC3)C(=O)C4)cc2)CC1,≥ 100
3,CCC(CC)N1C(=O)Cc2cnc(Nc3ccc(N4CCN(C)CC4)cn3)nc21,≥ 100
4,CCC(CC)N1C(=O)Cc2cnc(Nc3ccc(N4CCOCC4)cc3)nc21,≤ 100
5,CCC(CC)N1C(=O)Cc2cnc(Nc3cccc(-c4nncn4C)c3)nc21,≥ 100
6,O=C(c1ccc(Nc2ncc3c(n2)N(C2CC2)C(=O)C3)cc1)N1CCOCC1,≥ 100
7,CCC(CC)n1ccc2cnc(Nc3ccc(N4CCN(C(C)=O)CC4)cc3)nc21 [drawing 51],≤ 100
8,CCC(CC)N1C(=O)Cc2cnc(Nc3ccc(N4CCN(C)CC4)c(F)c3)nc21,≤ 100
9,CCC(CC)n1ccc2cnc(Nc3cccc(OCCN4CCCC4)c3)nc21,≤ 100
10,CCC(c1ccccc1)N1C(=O)Cc2cnc(Nc3cccc(OCCN4CCCC4)c3)nc21 (centres unmarked),≥ 100
11,CCC(CC)N1C(=O)Cc2cnc(Nc3ccc(NC(C)=O)cc3)nc21,≥ 100
12,CCC(CC)N1C(=O)Cc2cnc(Nc3ccc(N4CCC(N5CCN(C)CC5)CC4)cc3)nc21,≤ 100
13,O=C1Cc2cnc(Nc3ccc(C(=O)N4CCOCC4)cc3)nc2N1,≥ 100
14,CCC(CC)N1C(=O)Cc2cnc(Nc3cc(C(=O)N4CCOCC4)ccc3OC)nc21,≥ 100
15,CCN1C(=O)Cc2cnc(Nc3ccc(N4CCN(C)CC4)cc3)nc21,≥ 100
16,O=C1Cc2cnc(Nc3ccc(N4CCOCC4)cc3)nc2N1C1CCCC1,≥ 100
17,CCC(CC)N1C(=O)Cc2cnc(Nc3cccc(OCCn4ccnc4)c3)nc21,≥ 100
18,CCC(CC)N1C(=O)Cc2cnc(Nc3ccc(NC(=O)c4cccnc4)cc3)nc21,≥ 100
19,CCC(CC)N1C(=O)Cc2cnc(Nc3ccc(C(=O)NC4CCCC4)cc3)nc21,≤ 100
20,CCC(CC)N1C(=O)Cc2cnc(Nc3ccc(C(=O)NCCN4CCCCC4)cc3)nc21,≥ 100
21,COc1ccc(C(=O)N2CCOCC2)cc1Nc1ncc2c(n1)NC(=O)C2 [drawing 17],≥ 100
22,CCC(CC)N1C(=O)Cc2cnc(Nc3cc(C(=O)N4CCOCC4)ccc3F)nc21,≥ 100
23,CCC(CC)n1ccc2cnc(Nc3ccc(N4CCN(C)CC4)cc3)nc21,≤ 100
24,CCC(CC)n1ccc2cnc(Nc3ccc(N4CCN(C(C)=O)CC4)cn3)nc21 [drawing 81],≥ 100

# More lines, now with the values ahead:
row,IC50 [nM],Structure (SMILES)
1,≥ 100,CCC(CC)n1cnc2cnc(Nc3ccc(N4CCN(C(C)=O)CC4)cc3)nc21
2,≤ 100,CCC(CC)N1C(=O)Cc2cnc(Nc3ccc(N4CCN(S(C)(=O)=O)CC4)cc3)nc21
3,≥ 100,COc1ccc(C(=O)N2CCN(C)CC2)cc1Nc1ncc2c(n1)NC(=O)C2 [drawing 20]
4,≥ 100,CCC(CC)N1C(=O)Cc2cnc(Nc3ccc(S(=O)(=O)Nc4ccccn4)cc3)nc21
5,≤ 100,CCC(CC)n1c(=O)[nH]c2cnc(Nc3ccc(N4CCN(C)CC4)cc3)nc21
6,≥ 100,CCC(CC)N1C(=O)Cc2cnc(Nc3ccc(C(=O)NC(C)C)cc3)nc21
7,≥ 100,CCC(c1ccccc1)N1C(=O)Cc2cnc(Nc3cccc(OCCn4ccnc4)c3)nc21 (centres unmarked)
8,≥ 100,CCC(CC)N1C(=O)Cc2cnc(Nc3ccc(-n4cncn4)cc3)nc21
9,≥ 100,CCC(CC)N1C(=O)Cc2cnc(Nc3cccc(OCCN4CCOCC4)c3)nc21
10,≥ 100,CCC(CC)N1C(=O)Cc2cnc(Nc3cccc(OCCN4CCN(C)CC4)c3)nc21
11,≤ 100,CN1CCN(c2ccc(Nc3ncc4c(n3)N(C3CCCCC3)C(=O)C4)cc2)CC1
12,≥ 100,CCC(CC)N1C(=O)Cc2cnc(Nc3ccc(C(=O)N(C)C)cc3)nc21
13,≥ 100,CCC(CC)n1cnc2cnc(Nc3ccc(N4CCN(C)CC4)cc3)nc21
14,≤ 100,CCC(CC)N1C(=O)Cc2cnc(Nc3ccc(N4CCN(C(C)=O)CC4)cc3)nc21
